Test results taken from ChEMBL document CHEMBL3091360, “Homosecoiridoid alkaloids with amino acid units from the flower buds of Lonicera japonica” (J Nat Prod, 2013).
Activity calls are given as the source filed them. The rule behind the calls is not given here.

How the values were obtained:
[1] = system: Human immunodeficiency virus 1; test: Antiviral activity against HIV1 infected in human 293T cells expressing VSV-G assessed as inhibition of viral p24 production at 10 uM after 48 hrs by ELISA; type: functional, organism-based
[2] = system: HCT-8; test: Cytotoxicity against human HCT8 cells at 10 uM after 96 hrs by MTT assay; type: functional, cell-based
[3] = system: KETR3; test: Cytotoxicity against human Ketr3 cells at 10 uM after 96 hrs by MTT assay; type: functional, cell-based
[4] = system: Bel-7402; test: Cytotoxicity against human Bel7402 cells at 10 uM after 96 hrs by MTT assay; type: functional, cell-based
[5] = system: MCF7; test: Cytotoxicity against human MCF7 cells at 10 uM after 96 hrs by MTT assay; type: functional, cell-based
[6] = system: BGC-823; test: Cytotoxicity against human BGC823 cells at 10 uM after 96 hrs by MTT assay; type: functional, cell-based
[7] = system: A549; test: Cytotoxicity against human A549 cells at 10 uM after 96 hrs by MTT assay; type: functional, cell-based
[8] = Antiinflammatory activity in rat polymorphonuclear leukocytes assessed as inhibition of PAF-induced release of glucuronidase at 10 uM; type: functional
[9] = system: Influenza A virus H3N2; test: microbe, parasite or virus in culture; conditions: Hanfang/359/95
[10] = system: Coxsackievirus B3; test: Antiviral activity against Coxsackie virus B3 assessed as inhibition of viral replication; type: functional, organism-based; conditions: Enterovirus B

SMILES | inhibition [1] | Activity [2] | Activity [3] | Activity [4] | Activity [5] | Activity [6] | Activity [7] | inhibition at 10 µM [8] [%] | IC50 [9] [µM] | IC50 [10] [µM]
O=C(/C=C/c1ccc(O)c(O)c1)O[C@@H]1[C@H](O)C[C@@](O)(C(=O)O)C[C@H]1OC(=O)/C=C/c1ccc(O)c(O)c1 | inactive | inactive | inactive | inactive | inactive | inactive | inactive | < 30 | 10.2 | 
O=C(/C=C/c1ccc(O)c(O)c1)O[C@@H]1C[C@](O)(C(=O)O)C[C@@H](OC(=O)/C=C/c2ccc(O)c(O)c2)[C@H]1O | inactive | inactive | inactive | inactive | inactive | inactive | inactive | < 30 | 4.9 | 
Cc1cc(CCCOc2c(C)cc(-c3noc(C(F)(F)F)n3)cc2C)on1 [PLECONARIL] |  |  |  |  |  |  |  |  |  | 0.3
C=C[C@H]1[C@H](O[C@@H]2O[C@H](CO)[C@@H](O)[C@H](O)[C@H]2O)OC=C(C(=O)O)[C@H]1/C=C/c1ccc[n+]([C@@H](C)C(=O)[O-])c1 | inactive | inactive | inactive | inactive | inactive | inactive | inactive | 63.2 | 11.6 | 
C=C[C@H]1[C@H](O[C@@H]2O[C@H](CO)[C@@H](O)[C@H](O)[C@H]2O)OC=C(C(=O)O)[C@H]1/C=C/c1ccc[n+]([C@H](Cc2ccccc2)C(=O)[O-])c1 | inactive | inactive | inactive | inactive | inactive | inactive | inactive | 53.8 | 6.8 | 12.3
C=C[C@H]1[C@H](O[C@@H]2O[C@H](CO)[C@@H](O)[C@H](O)[C@H]2O)OC=C(C(=O)O)[C@H]1/C=C/c1cc(C(=O)O)c[n+]([C@H](Cc2ccccc2)C(=O)[O-])c1 | inactive | inactive | inactive | inactive | inactive | inactive | inactive | < 30 | 8.2 | 
CCOC(=O)C1=C[C@@H](OC(CC)CC)[C@H](NC(C)=O)[C@@H](N)C1 [OSELTAMIVIR] |  |  |  |  |  |  |  |  | 1.3 | 
C=C[C@H]1[C@H](O[C@@H]2O[C@H](CO)[C@@H](O)[C@H](O)[C@H]2O)OC=C(C(=O)[O-])[C@H]1/C=C/c1cc(C(=O)O)c[n+]([C@@H](CC(C)C)C(=O)O)c1 | inactive | inactive | inactive | inactive | inactive | inactive | inactive | < 30 | 10.3 | 
C=C[C@H]1[C@H](O[C@@H]2O[C@H](CO)[C@@H](O)[C@H](O)[C@H]2O)OC=C(C(=O)OC)[C@H]1/C=C/c1cc(C(=O)O)c[n+]([C@H](C(=O)[O-])C(C)C)c1 | inactive | inactive | inactive | inactive | inactive | inactive | inactive | < 30 |  | 
C=C[C@H]1[C@H](O[C@@H]2O[C@H](CO)[C@@H](O)[C@H](O)[C@H]2O)OC=C(C(=O)OC)[C@H]1CC(=O)OC | inactive | inactive | inactive | inactive | inactive | inactive | inactive | < 30 |  | 
C=C[C@H]1[C@H](O[C@@H]2O[C@H](CO)[C@@H](O)[C@H](O)[C@H]2O)OC=C(C(=O)[O-])[C@H]1/C=C/c1cc(C(=O)O)c[n+]([C@H](C(=O)O)[C@@H](C)CC)c1 | inactive | inactive | inactive | inactive | inactive | inactive | inactive | < 30 |  | 
COC[C@H]1O[C@@H](n2cnc3c(N)ncnc32)[C@H](O)[C@@H]1O | inactive | inactive | inactive | inactive | inactive | inactive | inactive | < 30 | 3.4 | 
COC(=O)C1=CO[C@@H](O[C@@H]2O[C@H](CO)[C@@H](O)[C@H](O)[C@H]2O)[C@H]2[C@@H]1CC(=O)[C@@H]2C | inactive | inactive | inactive | inactive | inactive | inactive | inactive | < 30 |  | 
